Results on 1 molecule are retold here after publication PMC4414177, “A novel orally active water-soluble inhibitor of human glutathione transferase exerts a potent and selective antitumor activity against human melanoma xenografts” (Oncotarget, 2015).

Test [1] concerns SK23-MEL cells. Kind of test: Tyrosinase activity. Conditions: 7 μM, 48 hrs, p < 0.005. The format is cell-based, human. On the procedure: Cells (1×10^6) were lysed in 1M NaOH at 100°C, for 1 hour and then centrifuged at 15,000 g, for 20 minutes. […] Tyrosinase activity was examined by measuring spectrophotometrically at 475 nm the rate of L-DOPA oxidation to dopachrome over 1 hour at 37°C. Cells [1×10^6 in 40 μl of 20 mM potassium phosphate buffer (pH 6.8) containing 1% Triton X-100 and 1 mM PMSF] were disrupted by freezing and thawing and centrifuged at 15,000 g for 20 minutes at 4°C. The assay was started by addition of 100 μl of 2 mg/ml L-DOPA to 40 μl of supernatant. Tyrosinase activity was expressed as change in absorbance, per hour, per 10^6 cells.

Test [2] has as its system A375 cells. Kind of test: JNK phospho-activation (Western blot). The format is cell-based, human. Conditions: A375, 10 μM. The protocol: The cell pellet obtained at each time point was lysed as previously reported and the protein concentration was determined using the Lowry colorimetric assay. Proteins (40 μg) were loaded on 12% SDS-polyacrylamide gel and transferred onto a PVDF membrane (GE Healthcare, Chalfont St. Giles, UK). Anti-P-JNK (Thr183 Tyr185) (Cell Signaling, Beverly, MA, USA), anti-JNK (Cell Signaling) and anti-β actin were used as primary antibodies. […] The ImageJ software was used to analyze the band intensities.
Background: Immunoblotting shows a protein as a band on a membrane.

For test [3], the system named is A375 tumor xenografts. Put plainly: Immunohistochemical analysis of A375 tumor xenografts. The format is in vivo, mice. An excerpt: At sacrifice, tumors were removed, formalin-fixed and paraffin embedded. All internal organs were fixed and paraffin embedded for the morphological study to evaluate drug effects in normal tissues. Three μm-thick sections were cut and stained with haematoxylin and eosin (H&E). Two observers blindly classified the tissues for necrotic areas, evaluated as percent of total area, mitosis number in 10 high power field randomly selected away from the ischemic necrosis.
Briefly, 3-μm-thick sections were pre-treated with EDTA citrate pH 7.8, for 30 min, at 95°C and then incubated respectively with rabbit monoclonal anti-Phospho-SAPK/JNK (1:100, 81E11, Cell Signaling, Danvers Massachusetts, USA) and rabbit polyclonal anti-Caspase3, for 60 min (1:100, PA5-16335, ThermoFisher Scientific, Walthman, MA, USA). Washing were performed with PBS 4% + Tween20, pH 7.6, by UCS diagnostic.

The subject of test [4] is SK23-MEL. Put plainly: Cell growth inhibition, SRB assay. Type of test: cell-based. Conditions: Homo sapiens, 48 h. On the procedure:
(§1) The IC50 values for each compound were then evaluated by the SRB assay.
On the technique in general: In SRB staining, fixed cells bind dye roughly in proportion to their protein.

In test [5] the test system is IST-MEL-1. Put plainly: Cell growth inhibition, SRB assay. Type of test: cell-based. Conditions: Homo sapiens, IST-MEL-1, 48 h. The protocol: as §1
In test [6] the test system is MALME-3M. Kind of test: Cell growth inhibition, SRB assay. The format is cell-based. Conditions: Homo sapiens, 48 h. The protocol: as §1
The test system of test [7] is G-361. Put plainly: Cell growth inhibition, SRB assay. Type of test: cell-based. The following applies: Homo sapiens, G-361, 48 h. The protocol:
as §1

Test [8] concerns A375. Put plainly: Cell growth inhibition, SRB assay. Type of test: cell-based. Conditions: Homo sapiens, A-375, A375, 48 h. On the procedure:
as §1

Test [9] has as its system A375 human melanoma. Kind of test: A375 fragment xenograft model, antitumor efficacy. Conditions: MC3181 i.v. 8mg/kg/d q1dx5 three weeks. Type of test: in vivo, mice. On the procedure: With regard to the in vivo fragment tumor model, A375 cells were injected (1×10^7) subcutaneously (s.c.) into the right flank of an athymic Nude-Foxn1nu female mouse, and the established primary tumor was then removed and cut into fragments (2–3 mm diameter) and implanted s.c. into recipient mice. Animals were randomly divided in groups of 7 mice and treatment was initiated when a tumor volume of 0.12 ± 0.01 cm^3 (mean ± SEM) was reached.
The reference drug temozolomide, dissolved in DMSO/PBS 1:1 to a final concentration of 10 mg/ml, was administered i.p. q1dx5 at a dose of 100mg/kg/day.
Primary tumor growth was determined for all animals by caliper measurement (minor and major axis length), three times per week, until they were sacrificed. Primary tumor volume was determined using the following equation: V (cm^3)=(α^2×β)/2 (Eq. 3)
The efficacy of the treatment was also analyzed by calculation of the percentage of Increase in Life Span (% ILS), since this analysis gives an evidence of clinical potency. Survival endpoint for each animal was fixed at the day when tumor volume reached 1.0 cm^3 (A375) or 0.4 cm^3 (SK23-MEL and G-361), and data were used to plot the relative Kaplan-Meier curves. Treatment efficacy was then evaluated by comparing the Median Survival Time (MST) of treated group with the MST of control group, and expressed as percentage of ILS: % ILS=[100×(MSTtreated group)/(MSTcontrol group)]−100 (Eq. 4)
Treatment was considered effective when % ILS > 20%.

Test [10] relates to five cultured human melanoma cell lines. Put plainly: Cell growth inhibition, SRB assay, whole panel. The format is cell-based. The following applies: range over A375, G-361, MALME-3M, IST-MEL-1, SK23-MEL. The protocol: as §1
Test [11] relates to SK23-MEL cells. Kind of test: Cell morphology (phase-contrast microscopy). Type of test: cell-based, human. Conditions: 7 μM, 48 hrs.
The test system of test [12] is SK23-MEL cells. Put plainly: Annexin V / PI staining (flow cytometry). Conditions: 48 hrs of treatment. The format is cell-based, human. The protocol: (§2) A375 and SK23-MEL cells, were fixed with 70% ethanol overnight, stained with PI staining buffer ([…] and 1% Triton X-100) and analyzed by a FACSCalibur (BD Bioscence, San Jose, CA, USA). The percentage of early apoptotic, late apoptotic, and necrotic cells was determined by simultaneous staining of cells with PI (2 μg/ml) and Annexin V-FITC (0.5 μg/ml) (Sigma Aldrich), according to manufacturer's protocol. Flow cytometric data were analyzed by the FlowJo 8.8.6 software (Tree Stare, Inc, Ashland, OR, USA).
For orientation: In flow cytometry, cells or beads pass a laser one at a time.

Test [13] concerns A375 cells. Kind of test: Annexin V / PI staining (flow cytometry). Type of test: cell-based, human. The protocol: as §2

Turning to `O=[N+]([O-])c1ccc(SCCOCCOCCO)c2nonc12` [MC3181, 2-(2-(2-((7-nitrobenzo[c][1,2,5]oxadiazol-4-yl)thio)ethoxy)ethoxy)ethanol], the tyrosinase activity result in [1] is “significant increase”. For the same molecule, the JNK phosphorylation result in test [2] is reported as “sustained increase in JNK phosphorylation”. The “start of the increase in JNK phosphorylation after addition of the drug” value in test [2] is ≤ 1 h. Besides, in [3] (A375 tumor xenografts, data not shown), the “higher apoptosis compared to untreated controls” value is “about 20%”. In test [3] (A375 xenografts, 8 mg/kg, P-JNK 6 hrs after treatment, caspase-3 at end of treatment), the “JNK phosphorylation and caspase-3 in tumors” value was “significant increase of JNK phosphorylation and caspase-3 activity”. For the same molecule, the half-maximal inhibitory concentration (IC50) (in general, the midpoint of a concentration-inhibition curve) in [4] was 1790 ± 50 nM; in test [5] it was 920 ± 70 nM; in [6], 2420 ± 160 nM; in test [7], 780 ± 40 nM; in [8], 2310 ± 40 nM; in [10], 800 to 2400 nM. In test [9] (TMZ i.p. 100 mg/kg/d q1dx5), the “%ILS” value was 53%. Besides, in [9] (TMZ i.p. 100 mg/kg/d q1dx5, from day 13 onward, P < 0.05), the tumor growth entry is listed as “significantly delayed tumor growth”. The cell morphology result in test [11] is given as “clear morphological changes”. The “percentage of total apoptotic cells” value in test [12] was “about 20%”; in [13] (A375, 24 hrs post-treatment), “approximately 23%”; in test [13] (A375, 48 hrs post-treatment), ~37%.
